Experimental data reported in US12312343B2, “Rotomeric isomers of 4-alkyl-5-heteroaryl-3H-1,2-dithiole-3-thiones” (ST IP HOLDING AG, priority 2018, dated 2025).

Assays:
SOD1 = experiment: Human oxidative stress RT2 Profiler PCR array in HGEPp cells: SOD1; type: cell-based; details: 100 μg/ml, 24 h, RT-PCR ΔΔCt
Experimental: (§1) RT-PCR was performed on an iCycler.

GSTP1 = experiment: Human oxidative stress RT2 Profiler PCR array in HGEPp cells: GSTP1; type: cell-based; details: 100 μg/ml, 24 h, RT-PCR ΔΔCt
Experimental: as §1

PTGS1 = experiment: Human oxidative stress RT2 Profiler PCR array in HGEPp cells: PTGS1; type: cell-based; details: 100 μg/ml, 24 h, RT-PCR ΔΔCt
Experimental: as §1

GCLC = experiment: Human oxidative stress RT2 Profiler PCR array in HGEPp cells: GCLC; type: cell-based; details: 100 μg/ml, 24 h, RT-PCR ΔΔCt
Experimental: as §1

ALOX12 = experiment: Human oxidative stress RT2 Profiler PCR array in HGEPp cells: ALOX12; type: cell-based; details: 100 μg/ml, 24 h, RT-PCR ΔΔCt
Experimental: as §1

GTF2i = experiment: Human oxidative stress RT2 Profiler PCR array in HGEPp cells: GTF2i; type: cell-based; details: 100 μg/ml, 24 h, RT-PCR ΔΔCt
Experimental: as §1

GCLM = experiment: Human oxidative stress RT2 Profiler PCR array in HGEPp cells: GCLM; type: cell-based; details: 100 μg/ml, 24 h, RT-PCR ΔΔCt
Experimental: as §1

NQO1 = experiment: Human oxidative stress RT2 Profiler PCR array in HGEPp cells: NQO1; type: cell-based; details: 100 μg/ml, 24 h, RT-PCR ΔΔCt
Experimental: as §1

HGEPp cells = details: 100 μg/mL pretreatment; taken from PCT/IB2017/001312; cited from earlier work
UCP2 = experiment: Human oxidative stress RT2 Profiler PCR array in HGEPp cells: UCP2; type: cell-based; details: 100 μg/ml, 24 h, RT-PCR ΔΔCt
Experimental: as §1

GPX1 = experiment: Human oxidative stress RT2 Profiler PCR array in HGEPp cells: GPX1; type: cell-based; details: 100 μg/ml, 24 h, RT-PCR ΔΔCt
Experimental: as §1

With `Cc1c(-c2cnccn2)ssc1=S` [ST-617-API, 4-methyl-5-(pyrazin-2-yl)-3H-1,2-dithiole-3-thione, reference compound] the “SOD1 up regulation relative fold change” value (SOD1) was 2.46 fold, the “GSTP1 up regulation relative fold change” value (GSTP1) was 2.17 fold and the “PTGS1 down regulation relative fold change” value (PTGS1) was 0.22 fold. The “GCLC up regulation relative fold change” value (GCLC) was 4.14 fold, the “ALOX12 up regulation relative fold change” value (ALOX12) was 6.15 fold and the “GTF2i down regulation relative fold change” value (GTF2i) was 0.34 fold. For the same compound, the “GCLM up regulation relative fold change” value (GCLM) was 3.03 fold, the “NQO1 up regulation relative fold change” value (NQO1) was 2.95 fold and the “ROS level (optical density, Normal = 100% baseline), as reported in PCT/IB2017/001312” value (HGEPp cells) was 124%. For the same compound, the “UCP2 down regulation relative fold change” value (UCP2) was 0.18 fold and the “GPX1 up regulation relative fold change” value (GPX1) was 4.88 fold.
